The values below come from PubChem BioAssay (NCI).

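Step 1: Grow cells in 96-well plates. Step 2: Expose to compound for 48 hours at 5 concentrations. Step 3: Interpolate endpoints linearly; if unreached, use highest concentration. The concentration for 50% growth inhibition is given as GI50. At the TGI there is no net growth.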

One test has as its system MCF7 breast. The experiment in a line: NCI-60 cell line screen, 48 h.
With `CN1CCN(Cc2ccc(NC(=O)c3cncc(C#Cc4cnc(N)c5ccc(C#N)cc45)c3)cc2C(F)(F)F)CC1`, the GI50 is 0.688 µM and the TGI came to 1.86 µM.
With `CCOC(=O)CCc1cc(=O)oc2cc(O)cc(O)c12`, the TGI is above 100 µM.
In the case of `COC(=O)c1cc2c3ccccc3[nH]c2c2ncccc12`, the GI50 was 14.4 µM and the TGI was above 100 µM.
For `CNC(=O)OCc1c(COC(=O)NC)c(-c2ccc(Cl)c(Cl)c2)n2c1SCC2`, the TGI turned out to be 27.2 µM.
For the compound `COc1cc(OC)cc(-c2ccc(-c3ccc(C(=N)N)o3)o2)c1`, the GI50 is 1.8 µM and the TGI amounted to 4.31 µM.
`C[C@]12CC[C@H](O)CC1=CC[C@@H]1[C@@H]2CC[C@]2(C)C(c3cccnc3)=CC[C@@H]12`: the GI50 is above 100 µM and the TGI is above 100 µM.
As to `Cc1ccc2c(c1)C(=O)/C(=C/c1ncc([N+](=O)[O-])n1C)O2`, the GI50 was 0.534 µM and the TGI came to 9.88 µM.
In turn, `CC1OC(n2cc(F)c(=O)[nH]c2=O)CCC1O` (stereo not drawn) came in with a TGI above 72.3 µM.
For the compound `O=C(NCCOCCOCCNc1cccc2c1C(=O)N(C1CCCNC1=O)C2=O)c1cc2c(o1)C(=O)c1ccccc1C2=O` (stereo not drawn), the GI50 is 1.25 µM and the TGI was determined as 3.21 µM.
`CC1CCC2(C(=O)O)CCC3(C)C(=CCC4C5(C)CC(O)C(O)C(C)(CO)C5C(O)CC43C)C2C1C` (stereo not drawn) yielded a TGI above 100 µM.

In the next test the test system is RPMI-8226 leukemia. The experiment in a line: NCI-60 cell line screen, 48 h.
In turn, `Cc1nc2cccc([N+](=O)[O-])c2c(NCCCN(C)C)c1C` registered a TGI above 100 µM.
In the case of `NCC(=O)NS(=O)(=O)OC[C@H]1O[C@@H](n2cnc3c(N)ncnc32)[C@H](O)[C@@H]1O`, the GI50 is 3.29 µM and the TGI was determined as 10.1 µM.
In the same order, the values of `Cc1c(C(=O)N/N=C/c2ccc(Cl)cc2)nnn1-c1ccnc2c(C(F)(F)F)cccc12` are 4.2 µM and 31.1 µM.
In the case of `Cc1nn(CN2CCN(C)CC2)c(=S)n1/N=C/c1cccc2ccccc12`, the GI50 is 17.4 µM and the TGI is 39.9 µM.
In the same order, the values of `N#C/C(=C1C=C/C(=N/O)C(Br)=C/1)c1ccccc1` are 0.36 µM and 11.5 µM.
In the same order, the values of `CN(C)CCNc1cc(-c2ccccc2)nc2ccccc12` are 4.09 µM and 21.8 µM.
Take `COc1cccc(/C=N/NC(=O)c2ccccc2Nc2ccnc(C(F)(F)F)c2)c1O`: the GI50 is 0.156 µM and the TGI turned out to be 0.983 µM.
In the same order, the values of `CN1CCN(Cc2ccc(NC(=O)c3cncc(C#Cc4cnc(N)c5ccc(C#N)cc45)c3)cc2C(F)(F)F)CC1` are 0.0775 µM and 1.25 µM.
In turn, `CCOC(=O)CCc1cc(=O)oc2cc(O)cc(O)c12` gave a TGI above 100 µM.
`COC(=O)c1cc2c3ccccc3[nH]c2c2ncccc12`: the GI50 was 56.3 µM and the TGI was above 100 µM.
Consider `CNC(=O)OCc1c(COC(=O)NC)c(-c2ccc(Cl)c(Cl)c2)n2c1SCC2`, for which the TGI came to 39.7 µM.
For the compound `COc1cc(OC)cc(-c2ccc(-c3ccc(C(=N)N)o3)o2)c1`, the GI50 is 2.25 µM and the TGI amounted to 5.68 µM.
Regarding `C[C@]12CC[C@H](O)CC1=CC[C@@H]1[C@@H]2CC[C@]2(C)C(c3cccnc3)=CC[C@@H]12`, the GI50 is 5.1 µM and the TGI was above 100 µM.
Regarding `Cc1ccc2c(c1)C(=O)/C(=C/c1ncc([N+](=O)[O-])n1C)O2`, the GI50 is 1.6 µM and the TGI was found to be 5.63 µM.
`CC1OC(n2cc(F)c(=O)[nH]c2=O)CCC1O` (stereo not drawn) came in with a TGI above 100 µM.
With `O=C(NCCOCCOCCNc1cccc2c1C(=O)N(C1CCCNC1=O)C2=O)c1cc2c(o1)C(=O)c1ccccc1C2=O` (stereo not drawn), the GI50 was 3.29 µM and the TGI turned out to be 14.1 µM.
For the compound `CC1CCC2(C(=O)O)CCC3(C)C(=CCC4C5(C)CC(O)C(O)C(C)(CO)C5C(O)CC43C)C2C1C` (stereo not drawn), the TGI is 80.4 µM.

Another test relates to SR leukemia. The experiment in a line: NCI-60 cell line screen, 48 h.
In turn, `Cc1nc2cccc([N+](=O)[O-])c2c(NCCCN(C)C)c1C` had a TGI above 57.5 µM.
For the compound `NCC(=O)NS(=O)(=O)OC[C@H]1O[C@@H](n2cnc3c(N)ncnc32)[C@H](O)[C@@H]1O`, the GI50 was 0.936 µM and the TGI was above 100 µM.
In the case of `Cc1c(C(=O)N/N=C/c2ccc(Cl)cc2)nnn1-c1ccnc2c(C(F)(F)F)cccc12`, the GI50 is 3.6 µM and the TGI was 12.3 µM.
As to `Cc1nn(CN2CCN(C)CC2)c(=S)n1/N=C/c1cccc2ccccc12`, the GI50 is 19 µM and the TGI was found to be 38.5 µM.
For `N#C/C(=C1C=C/C(=N/O)C(Br)=C/1)c1ccccc1` the same measures were 0.545 µM and 8.48 µM.
In the same order, the values of `CN(C)CCNc1cc(-c2ccccc2)nc2ccccc12` are 2.72 µM and 8.37 µM.
In the same order, the values of `COc1cccc(/C=N/NC(=O)c2ccccc2Nc2ccnc(C(F)(F)F)c2)c1O` are 0.0477 µM and 0.417 µM.
Consider `CN1CCN(Cc2ccc(NC(=O)c3cncc(C#Cc4cnc(N)c5ccc(C#N)cc45)c3)cc2C(F)(F)F)CC1`, for which the GI50 was 0.0464 µM and the TGI is 2.4 µM.
Regarding `CCOC(=O)CCc1cc(=O)oc2cc(O)cc(O)c12`, the TGI is above 100 µM.
On to `COC(=O)c1cc2c3ccccc3[nH]c2c2ncccc12`, for which the GI50 is 66.4 µM and the TGI is above 100 µM.
For `CNC(=O)OCc1c(COC(=O)NC)c(-c2ccc(Cl)c(Cl)c2)n2c1SCC2`, the TGI came to 39 µM.
As for `COc1cc(OC)cc(-c2ccc(-c3ccc(C(=N)N)o3)o2)c1`, the GI50 is 1.68 µM and the TGI is 4.36 µM.
As to `C[C@]12CC[C@H](O)CC1=CC[C@@H]1[C@@H]2CC[C@]2(C)C(c3cccnc3)=CC[C@@H]12`, the GI50 was 9.44 µM and the TGI is above 100 µM.
`Cc1ccc2c(c1)C(=O)/C(=C/c1ncc([N+](=O)[O-])n1C)O2`: the GI50 is 0.0379 µM and the TGI was 0.431 µM.
`CC1OC(n2cc(F)c(=O)[nH]c2=O)CCC1O` (stereo not drawn): the TGI was above 100 µM.
`O=C(NCCOCCOCCNc1cccc2c1C(=O)N(C1CCCNC1=O)C2=O)c1cc2c(o1)C(=O)c1ccccc1C2=O` (stereo not drawn): the GI50 was 2.63 µM and the TGI was above 100 µM.
